In one experiment the target is T1, H3 receptor (Cavia porcellus, UniProt Q9JI35).
T1 construct: the longitudinal muscle layer and adhering myenteric plexus was teased away; from tissue; host or cells: ileal longitudinal muscle with adhering myenteric plexus of male Dunkin-Hartley guinea pigs
Kind of experiment: H3 receptor bioassay (functional assay), guinea pig ileal longitudinal muscle myenteric plexus. The experiment is classed as cell-based. To be noted: antagonism of R-(α)-methylhistamine E/[A] curve, Schild's methods, electrically stimulated guinea pig ileum, variance ±0.15 log units; for Kb: read-out: pKB (functional assay) (converted). As for the experimental part:
The biological activity of the compounds of the examples was measured using the ileal longitudinal muscle, myenteric plexus assay described by Paton and Aboo Zar (J. Physiol. 194, 13-33 (1968)). Male Dunkin-Hartley guinea pigs (250-300 g) were employed. Briefly, a 50 cm portion of ileum proximal to the caecum was removed, after discarding the terminal 20 cm. Ileal segments (3 cm) were cleaned by passing Krebs-Henseleit buffer containing 3 μM mepyramine gently through the ileum using a Pasteur pipette (size: 13.8 cm length, 0.65 cm diameter). To avoid unnecessary damage to the tissue, Krebs-Henseleit buffer was passed through the ileal segment, while it was lying horizontally on a petri dish. Therefore, the ileum was not over-distended and the buffer flowed through with ease. Each segment was then passed over a Pasteur pipette and the longitudinal muscle layer and adhering myenteric plexus was teased away using moist cotton wool, by stroking tangentially away from the mesenteric attachment. The tissues were suspended in 20 ml organ baths containing Krebs-Henseleit buffer at 37±1° C. and gassed with […]. The tissues were ligated to two parallel stainless steel wires, situated between two platinum electrodes (0.76 cm length, 0.06 cm diameter). All measurements were recorded isometrically (Grass FTO3 transducer). Following an initial loading tension of 1 g, the tissues were stimulated with electrical pulses at a frequency of 0.1 Hz and a pulse duration of 0.5msec, as described by Kosterlitz & Watt (1968). Initially, the tissues were stimulated at supramaximal (1.3 fold times maximal) voltage for a period of 30 min and then the tissues were washed and re-stimulated. A "sighter dose" of the selective histamine H3 -receptor agonist, R-(α)-methylhistamine(0.3 μM) (Arrang et al., 1987), was administered. Upon generation of response, the "sighter dose" was removed from the tissues by "washout" (6 washes over 60 min) and during this period the electrical stimulation was switched off. The tissues were then re-stimulated and allowed to stabilise prior to the addition of drug treatments, which were allocated on a randomised block basis to the organ baths. Following the incubation period, a single cumulative E/[A] curve was obtained. The experimental E/[A] curve data was expressed as the percentage inhibition of the peak height of electrically-stimulated contraction. Antagonist affinity values were calculated from the degree of rightward shift of the R-(α)-methylhistamine E/[A] curves using Schild's methods (Arunlatcshama & Schild, 1949).
(§1) Typical variance in the functional assay is ±0.15 log units. Typical variance in the binding assay is ±0.12 log units. This means that if the discrepancy between the two assays is greater than about 0.5 log units, then this difference on average is significant.

Another experiment concerns the target T2, Histamine H3 (Cavia porcellus, UniProt Q9JI35).
T2 construct: ileum longitudinal muscle myenteric plexus membranes; from tissue; host or cells: ileum longitudinal muscle myenteric plexus membranes of male Dunkin Hartley guinea pigs
In words: Histamine H3 radioligand binding assay, [3H]-R-α-methylhistamine, guinea pig ileum longitudinal muscle myenteric plexus membranes. As to the method:
Histamine H3 Radioligand Binding Assay
Male Dunkin Hartley guinea pigs (200-300 g) were used. The small intestine was rapidly removed (cut ~5 cm from caecum and 5 cm from stomach) and placed in ice-cold 20 mM Hepes-NaOH buffer (pH7.4 at 21±3° C.). The tissue was cut into ~10 cm segments, flushed through with ice-cold 20 mM Hepes-NaOH buffer and placed in a beaker containing fresh buffer at 4° C. 10 cm segments of ileum were threaded onto a glass pipette and the longitudinal muscle myenteric plexus was peeled away from the circular muscle using damp cotton-wool. Longitudinal muscle myenteric plexus was immediately placed in ice-cold Viaspan® solution (~100 ml for tissue from 3 guinea pigs) and placed in the refrigerator for 24 hours.
Pre-soaked tissue was weighed and minced with scissors. The tissue was then homogenised in Viaspan® using a polytron (Kinematica AG; PT-DA 3020/2TS, 3×~1-2 s). 50 ml of 500 mM Tris HCl (pH6.9 at 21±3° C.) was added to the tissue and the mixture centrifuged at 39,800×g for 12 min at 4° C. The supernatant was discarded and rehomogenised in 100 ml ice-cold 20 mM Hepes-NaOH buffer (pH7.4 at 21±3° C.) using a teflon-in-glass homogeniser (setting 10; 3×). The homogenate was recentrifuged at 39,800×g and the pellet resuspended in 20 mM Hepes-NaOH buffer (pH7.4 at 21±3° C.), to a tissue concentration of 50 mg.ml^-1, using a polytron (Brinkman, PT10, 3×~1 s).
Guinea pig ileum longitudinal muscle myenteric plexus membranes (400 μl) were incubated for 165 min at 21±3° C. in a final volume of 500 μl with 20 mM Hepes-NaOH buffer containing [^3 H]-R-α-methylhistamine (50 μl; 3 nM) and competing compound. Total and non-specific binding of [^3 H]-R-α-methylhistamine were defined using 50 μl of buffer and 50 μl of 10 μM thioperamide, respectively. The assay was terminated by rapid filtration through Whatman GF/B filters, presoaked (2 hr) in 0. 1% polyethyleneimine,using a Brandell Cell Harvester. The filters were washed (3×3 ml) with ice-cold 50 mM Tris-HCl (pH6.9 at 21±3° C.), transferred into scintillation vials, 5 ml liquid scintillation cocktail was added and after 4 hours the bound radioactivity was determined by counting (4 min) in a Beckman liquid scintillation counter.
Data are analysed using GraphPad prism and the general equation for a competition curve with variable Hill slope (nH).
Y=Non-specific binding+(Total binding-Non-specific binding)/1+10^((logIC.sbsp.50^-X).n.sbsp.H^)
X is the log concentration of competing compound, Y is the binding obtained at each concentration of X, pIC50 is the concentration of the competitor required to compete for half of the specific binding.
The IC50 is converted to the K1 using the Cheng Prusoff equation, […]
IC50 is the concentration of competitor required to compete for half the specific binding, L is the radioligand concentration used, KD is the equilibrium dissociation constant for the radioligand determined by saturation experiments.
as §1

Setting [1] is: 3 nM [3H]-R-α-methylhistamine, 165 min, 21±3° C., Cheng Prusoff, variance ±0.12 log units.
The mark [2] stands for this setting: 3 nM [3H]-R-α-methylhistamine, 165 min, 21±3° C., Cheng Prusoff, variance ±0.12 log units, read-out: pK1 (binding assay) (converted).

Where two headings read alike, the source gives them in different places.

T2 sequence (Q9JI35 whole entry): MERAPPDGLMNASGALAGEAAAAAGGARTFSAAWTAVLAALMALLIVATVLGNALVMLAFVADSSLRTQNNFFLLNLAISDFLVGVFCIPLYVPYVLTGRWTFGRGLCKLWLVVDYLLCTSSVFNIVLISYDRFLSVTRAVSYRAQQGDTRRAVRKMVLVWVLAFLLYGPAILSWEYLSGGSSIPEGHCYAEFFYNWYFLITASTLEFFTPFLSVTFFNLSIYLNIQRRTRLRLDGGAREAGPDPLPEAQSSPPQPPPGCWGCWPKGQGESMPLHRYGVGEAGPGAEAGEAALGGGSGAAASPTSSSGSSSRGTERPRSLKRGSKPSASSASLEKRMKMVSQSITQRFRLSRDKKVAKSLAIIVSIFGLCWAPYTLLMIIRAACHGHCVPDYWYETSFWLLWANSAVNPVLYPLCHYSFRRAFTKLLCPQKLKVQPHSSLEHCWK
T1 sequence (Q9JI35 whole entry): as above

For `O=S(=O)(NCCCCc1c[nH]cn1)NCc1ccc(F)cc1` [Example 46, N-[4-(4(5)-Imidazoyl)butyl]-N'-(4-fluorophenyl)methyl-sulfamide], the Kb on H3 receptor was 20 nM. For the same compound, the “pK1 (binding assay)” value on Histamine H3 (setting [1]) came out at 7.84.
As to `O=S(=O)(NCCCCc1c[nH]cn1)NCc1ccc(C(F)(F)F)cc1` [Example 47, N-[4-(4(5)-Imidazoyl)butyl]-N'-(4-(trifluoromethyl)phenyl)methyl-sulfamide], the Kb on H3 receptor was 3.31 nM. Besides, at Histamine H3 (setting [2]), the Ki was 2.69 nM.
In the case of `COc1ccc(CNS(=O)(=O)NCCCCc2c[nH]cn2)cc1` [Example 48, N-[4-(4(5)-Imidazoyl)butyl]-N'-(4-methoxyphenyl)methyl-sulfamide], the Kb on H3 receptor was 87.1 nM. Moreover, the “pK1 (binding assay)” value on Histamine H3 (setting [1]) is recorded as 7.58.
The corresponding values for `O=S(=O)(NCCCCc1c[nH]cn1)NCc1ccc(-c2ccccc2)cc1` [Example 49, N-[4-(4(5)-Imidazoyl)butyl]-N'-(4-biphenyl)methyl-sulfamide] are 4.79 nM and 8.12.
Regarding `O=S(=O)(NCCCCc1c[nH]cn1)NCc1ccc2ccccc2c1` [Example 50, N-[4-(4(5)-Imidazoyl)butyl]-N'-2-naphthylmethyl-sulfamide], the Kb at H3 receptor is 18.6 nM. At Histamine H3 (setting [2]), the Ki was 16.6 nM.
Regarding `O=S(=O)(NCCCCc1c[nH]cn1)NCC1CCCCC1` [Example 51, N-[4-(4(5)-Imidazoyl)butyl]-N'-cyclohexylmethyl-sulfamide], the Kb on H3 receptor was 97.7 nM. For the same compound, the Ki on Histamine H3 (setting [2]) was 79.4 nM.
Consider `O=S(=O)(CCc1ccc(Cl)cc1)NCCCc1c[nH]cn1` [Example 53, N-[3-(4(5)-Imidazoyl)propyl]-2-(4-chlorophenyl)ethanesulfonamide], for which, on H3 receptor, the Kb was 182 nM. This compound also showed a Ki on Histamine H3 of 56.2 nM.
For the compound `O=S(=O)(CCc1ccc(Cl)cc1)NCCCCCc1c[nH]cn1` [Example 54, N-[5-(4(5)-Imidazoyl)pentyl]-2-(4-chlorophenyl)ethanesulfonamide], the Kb on H3 receptor was 15.8 nM. The Ki at Histamine H3 (setting [2]) was 10 nM.
Take `O=S(=O)(CCc1ccc(Cl)cc1)NCCCCc1c[nH]cn1` [Example 55]: the Kb at H3 receptor is 6.03 nM. The Ki at Histamine H3 (setting [2]) was 7.76 nM.
For `O=S(=O)(NCCCc1c[nH]cn1)NCCc1ccc(Cl)cc1` [Example 56, N-[3-(4(5)-Imidazoyl)propyl]-N'-2-(4-chlorophenyl)ethyl-sulfamide] the same measures were 447 nM and 138 nM.
For `O=S(=O)(NCCCCc1c[nH]cn1)NCCc1ccc(Cl)cc1` [Example 57, N-[4-(4(5)-Imidazoyl)butyl]-N'-2-(4-chlorophenyl)ethyl-sulfamide], the Kb at H3 receptor was 11 nM. Moreover, on Histamine H3 (setting [2]), the Ki is 14.5 nM.
As for `O=S(=O)(NCCCCCCc1c[nH]cn1)NCc1ccc(Br)cc1` [Example 58], at H3 receptor, the Kb is 1.05 nM. Also, the Ki at Histamine H3 (setting [2]) was 4.37 nM.
As to `O=S(=O)(NCCCCCCc1c[nH]cn1)NCc1ccc(F)cc1` [Example 59, N-[6-(4(5)-Imidazoyl)hexyl]-N'-(4-fluorophenyl)methyl-sulfamide], the Kb on H3 receptor is 3.72 nM. Also, the Ki on Histamine H3 (setting [2]) was 8.32 nM.
On to `O=S(=O)(NCCCCCCc1c[nH]cn1)NCc1ccc(C(F)(F)F)cc1` [Example 60, N-[6-(4(5)-Imidazoyl)hexyl]-N'-(4-(trifluoromethyl)phenyl)methyl-sulfamide], for which, on H3 receptor, the Kb is 14.5 nM. The Ki on Histamine H3 (setting [2]) was 4.57 nM.
With `O=S(=O)(NCCCCCCc1c[nH]cn1)NCc1ccc(I)cc1` [Example 61, N-[6-(4(5)-Imidazoyl)hexyl]-N'-(4-iodophenyl)methyl-sulfamide], at H3 receptor, the “pKB (functional assay)” value is reported as 8.62. In addition, at Histamine H3 (setting [1]), the “pK1 (binding assay)” value is reported as 8.46.
Take `O=S(=O)(NCCCCCCc1c[nH]cn1)NCc1ccc(-c2ccccc2)cc1` [Example 62, N-[6-(4(5)-Imidazoyl)hexyl]-N'-(4biphenyl)methyl-sulfamide]: on H3 receptor, the Kb was 7.41 nM. Moreover, the Ki at Histamine H3 (setting [2]) was 5.75 nM.
Consider `O=S(=O)(NCCCCCc1c[nH]cn1)NCc1ccc(C(F)(F)F)cc1` [Example 63, N-[5-(4(5)-Imidazoyl)pentyl]-N'-(4-(trifluoromethyl)phenyl)methyl-sulfamide], for which the Kb on H3 receptor is 4.07 nM. Also, on Histamine H3 (setting [2]), the Ki was 6.61 nM.
The corresponding values for `O=S(=O)(NCCCCCc1c[nH]cn1)NCc1ccc(Br)cc1` [Example 64, N-[5-(4(5)-Imidazoyl)pentyl]-N'-(4-bromophenyl)methyl-sulfamide] are 3.89 nM and 5.01 nM.
The corresponding values for `O=S(=O)(NCCCCCc1c[nH]cn1)NCc1ccc(F)cc1` [Example 65, N-[5-(4(5)-Imidazoyl)pentyl]-N'-(4-fluorophenyl)methyl-sulfamide] are 47.9 nM and 10.5 nM.
Turning to `O=S(=O)(NCCCCCc1c[nH]cn1)NCc1ccc(I)cc1` [Example 66, N-[5-(4(5)-Imidazoyl)pentyl]-N'-(4-iodophenyl)methyl-sulfamide], at H3 receptor, the Kb is 8.71 nM. For the same compound, at Histamine H3 (setting [2]), the Ki is 7.76 nM.
For `O=S(=O)(NCc1ccc(Br)cc1)N(CCCCc1c[nH]cn1)Cc1ccc(Br)cc1` [Example 67, N,N'-Di-[(4-bromophenyl)methyl]-N-[4-(4(5)-imidazoyl)butyl]-sulfamide], the Kb on H3 receptor was 603 nM. Moreover, the Ki at Histamine H3 (setting [2]) is 141 nM.
The corresponding values for `CN(CCCCc1c[nH]cn1)S(=O)(=O)N(C)Cc1ccc(Cl)cc1` [Example 68, N'-(4-Chlorophenyl)methyl-N,N'-dimethyl-N-[4-(4(5)-imidazoyl)butyl]-sulfamide] are 17 nM and 11.2 nM.
Consider `CN(CCCCc1c[nH]cn1)S(=O)(=O)NCc1ccc(Cl)cc1` [Example 69, N'-(4-Chlorophenyl)methyl-N-[4-(4(5)-imidazoyl)butyl]-N-methyl-sulfamide], for which the Kb on H3 receptor was 1.2 nM. Also, the Ki on Histamine H3 (setting [2]) was 1.86 nM.
As for `CN(Cc1ccc(Cl)cc1)S(=O)(=O)NCCCCc1c[nH]cn1` [Example 70], the Kb on H3 receptor was 15.8 nM. Also, the Ki at Histamine H3 (setting [2]) was 11.2 nM.
